Where a name gives a salt, the structure may show the parent alone.
Target: T1, histamine H2-receptors (Rattus norvegicus, UniProt P25102)
T1 construct: histamine H2 -receptors was tested in Sprague-Dawley male rats; from tissue; host or cells: stomach of the living anesthetized Sprague-Dawley rat (in vivo perfused stomach)
Assay: blocking activity of histamine H2-receptors: antagonism of histamine-induced gastric acid secretion (perfused stomach, pH recording) in anesthetized rats
Type: in vivo
Details: iv, rapid i.v. injection (right femoral vein), histamine hydrochloride infusion 0.0552 mg/min/kg, ethyl carbamate anesthesia, male Sprague-Dawley rats
Procedure: The blocking qctivity of histamine H2 -receptors was tested in Sprague-Dawley male rats weighing 345±38 g. Animals which were subjected to a 24-hour hydric diet were tracheotomized under ethyl carbamate anesthesia (1 ml/100 g, 10% w/V i.p.). After cannulating the esophagus and stomach from duodenum, the gastric contents were drained. Then the esophageal cannual was connected to a peristaltic pump, under prior passage over a thermostatic batch at 37° C., and 1/800N sodium hydroxide solution in water flowed through. The cannula from the stomach was connected by a tube leading to a Ph-meter electrode, and the readings were graphically recorded. pH increase occurring by perfusion of the sodium hydroxide solution at 1.6 ml/min. rate is antagonized by continuous infusion of histamine hydrochloride through a catheter implanted in the right femoral vein (0.0552 mg/min/kg, 2 ml/hour). After calibrating the pH, test drugs are quickly injected into the right femoral vein. Under these conditions, the activities, expressed at ED50, of some compounds according to the present invention, are determined and set forth as follows, with cimetidine being employed for purposes of comparison: […]

T1 sequence (P25102 whole entry, the tested form may be a part): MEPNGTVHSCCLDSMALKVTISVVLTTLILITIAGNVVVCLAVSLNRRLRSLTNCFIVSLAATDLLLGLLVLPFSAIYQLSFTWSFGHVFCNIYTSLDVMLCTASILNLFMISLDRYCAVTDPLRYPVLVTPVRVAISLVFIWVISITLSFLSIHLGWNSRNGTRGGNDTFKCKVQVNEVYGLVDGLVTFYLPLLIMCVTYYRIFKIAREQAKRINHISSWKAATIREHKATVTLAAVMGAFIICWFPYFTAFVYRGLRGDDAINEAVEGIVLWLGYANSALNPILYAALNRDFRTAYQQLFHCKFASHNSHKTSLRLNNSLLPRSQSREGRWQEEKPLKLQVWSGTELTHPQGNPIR

Row | SMILES | ED50 [µmol/kg]
1 | Cc1ccc(S(=O)(=O)N=CNCCSCc2csc(N=C(N)N)n2)cc1 [Ex. 1, hydrogen maleate, N-p-toluensulphonyl-N'-[2-[[[2-[(aminoiminomethyl)amino]-4-thiazolyl]methyl]thio]ethyl]formamidine hydrogen maleate] | 0.7
2 | NC(N)=Nc1nc(CSCCNC=NS(=O)(=O)c2ccccc2)cs1 [Ex. 2, hydrogen maleate, N-benzenesulphonyl-N'-[2-[[[2-[(aminoiminomethyl)amino]-4-thiazolyl]methyl]thio]ethyl]formamidine hydrogen maleate] | 1.77
3 | CS(=O)(=O)N=CNCCSCc1csc(N=C(N)N)n1 [Ex. 3, hydrogen maleate, N-methansulphonyl-N'-[2-[[[2-[(aminoiminomethyl)amino]-4-thiazolyl]methyl]thio]ethyl]formamidine hydrogen maleate] | 1.12

Other lines, results leading:

Row | ED50 [µmol/kg] | SMILES
4 | 0.61 | NC(N)=Nc1nc(CSCCNC=NS(=O)(=O)c2ccc([N+](=O)[O-])cc2)cs1 [Ex. 4, hydrogen maleate, N-p-nitrobenzenesulphonyl-N'-[2-[[[2-[(aminoiminomethyl)amino]-4-thiazolyl]methyl]thio]ethyl]formamidine hydrogen maleate]
5 | 0.75 | NC(N)=Nc1nc(CSCCNC=NS(=O)(=O)c2ccc(Cl)cc2)cs1 [Ex. 5, hydrogen maleate, N-p-chlorobenzenesulphonyl--N'-[2-[[[2-[(aminoiminomethyl)amino]-4-thiazolyl]methyl]thio]ethyl]formamidine hydrogen maleate]

Reference: patent US4728655A, “Sulfonamidines, process for the production thereof and pharmaceutical compositions containing the same” (Ferrer Internacional S.A., priority 1984, dated 1988)
